In patent US8236827B2, “Compounds” (Spear Therapeutics Limited, priority 2009, dated 2012):

What was measured:
[1] = Cytotoxicity (MTS) in CHO/CYP1B1 cells; type: cell-based, Chinese Hamster; conditions: Chinese hamster
Procedure: (§1) CHO/CYP1A1 and CHO/CYP1B1 cells: CHO cells containing recombinant CYP1A1 and recombinant CYP1B1 co-expressing P450 reductase, namely (CHO/CYP1A1) and (CHO/CYP1B1) respectively, were cultured using the standard culture medium for CHO cells supplemented with 0.4 mg/ml G418 disulfate salt and 0.3 μM methotrexate (Sigma/Aldrich Co., Gillingham, Dorset, UK) according to methods described in the literature (ibid.) Cells were grown at 37° C. in a humidified atmosphere plus 5% CO2.
(§2) A single cell suspension of CHO, CHO/CYP1A1 or CHO/CYP1B1 in 100 μl of the required cell culture medium was seeded onto 96-well plates at a cell density of 1500 cells per well and placed in an incubator for 24 h at 37° C. The stock solution of test compound in DMSO was then added to give a concentration range of 100, 30, 10, 3, 1, 0.3, 0.1, 0.03, 0.01, 0.003, 0.001, 0 μM. The final concentration of DMSO 0.2% was found not to affect the growth characteristics of the various CHO cell lines. The cells were incubated with the test compound for 96 h after which all the medium was aspirated and replaced with 100 μl of fresh medium to compensate for the loss of medium due to evaporation. The cells were incubated with 20 μl of the MTS assay reagent for 1.5 h and the absorbance per well at 510 nm measured using a plate reader. The mean absorbance and standard deviation for each test compound concentration was calculated versus a series of controls including (a) cells plus medium, (b) cell plus medium containing DMSO 0.2%, (c) medium alone, and (d) medium containing DMSO 0.2% and a range of test compound concentrations from 0 to 100 μM.
(§3) The MTS assay is a homogeneous, colorimetric method for determining the number of viable cells in proliferation, cytotoxicity or chemosensitivity assays (Cali J J, et al., “Luminescence-Based Methods and Probes for Measuring Cytochrome P450 Activity”, pp. 1-29. Promega Corporation, United States, 2004, the contents of which are incorporated herein by reference). The assay is composed of solutions of tetrazolium compound [3-(4,5-dimethylthiazol-2-yl)-5-(3-carboxymethoxyphenyl)-2-(4-sulfophenyl)-2H-tetrazolium, inner salt; MTS] and an electron coupling reagent (phenazine methosulfate) PMS. MTS is bioreduced by cells into a formazan product that is soluble in tissue culture medium. The absorbance of the formazan product at 510 nm can be directly measured from 96-well assay plates. The quantity of formazan product as measured by the amount of absorbance at 490 or 510 nm is directly proportional to the number of living cells in culture.

[2] = system: CHO/CYP1B1 cells; assay: Cytotoxicity (MTS) in CHO/CYP1B1 cells; type: cell-based, Chinese Hamster
Procedure: as §1, §2, §3

[3] = system: CHO/CYP1A1 cells; assay: Cytotoxicity (MTS) in CHO/CYP1A1 cells; type: cell-based, Chinese Hamster
Procedure: as §1, §2, §3

[4] = Cytotoxicity (MTS) in CHO/CYP1A1 cells; type: cell-based, Chinese Hamster; conditions: Chinese hamster; 96 h, MTS
Procedure: as §1, §2, §3

[5] = system: wild-type CHO cells; assay: Cytotoxicity (MTS) in wild-type CHO cells; type: cell-based, Chinese Hamster; conditions: for IC50: Cricetulus griseus, CHO, 96 h, MTS
Procedure: CHO cells: Chinese Hamster Ovary (CHO) DUKXB11 cells were grown under standard cell culture conditions in α-MEM supplemented with 10% FCS, 1 unit/ml each of hypoxanthine and thymidine, and penicillin (100 IU/ml) and streptomycin (100 μg/ml) according to literature methods (Ding S, et al., Arch. Biochem. Biophys., 348: 403-410, 1997, the contents of which are incorporated herein by reference). Cells were grown at 37° C. in a humidified atmosphere plus 5% CO2.
as §2, §3

[6] = molecular target: T1, CYP1A2 (Homo sapiens, UniProt P05177); assay: CYP phenotyping, metabolic stability; type: in vitro ADME; conditions: CYP1A2 (40 pm/mL); for Mean Parent Remaining (%): 1 μM, after 60 minutes
T1 sequence (P05177 1-516): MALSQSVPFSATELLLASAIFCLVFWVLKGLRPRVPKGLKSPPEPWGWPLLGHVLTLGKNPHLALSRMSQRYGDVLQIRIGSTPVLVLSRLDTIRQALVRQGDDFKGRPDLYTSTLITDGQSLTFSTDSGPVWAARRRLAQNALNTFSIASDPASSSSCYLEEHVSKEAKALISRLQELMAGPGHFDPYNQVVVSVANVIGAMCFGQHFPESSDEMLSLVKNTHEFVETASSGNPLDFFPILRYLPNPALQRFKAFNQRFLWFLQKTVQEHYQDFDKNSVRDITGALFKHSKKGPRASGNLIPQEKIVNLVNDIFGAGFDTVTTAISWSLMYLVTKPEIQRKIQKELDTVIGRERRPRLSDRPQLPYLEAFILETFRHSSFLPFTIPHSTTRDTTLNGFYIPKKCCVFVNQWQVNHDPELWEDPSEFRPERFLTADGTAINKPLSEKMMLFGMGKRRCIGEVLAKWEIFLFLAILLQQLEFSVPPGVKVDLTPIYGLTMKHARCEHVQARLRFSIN
Procedure: (§4) As mentioned above, a feature of the compounds of the invention is their metabolism by CYP1B1 which is expressed at high frequency in a wide range of human cancers of different histogenetic types, but not in normal tissues. […] Compounds V and II were exposed to a panel of six CYPs (see Table 5 below).
(§5) CYP metabolism studies were performed by Cerep Laboratories (Redmond, Wash., USA). Compounds were screened in duplicate at 1 μM in the presence of CYP enzyme, NADP (1.3 mM), D-Glucose-6-phosphate (3.3 mM) and Glucose-6-phosphate dehydrogenase. Following incubation at 0 and 60 minutes, parent compound levels were determined using standard HPLC/MS/MS procedures. The results are expressed as percent parent compound remaining after 60 minutes.

[7] = molecular target: CYP3A5 (Homo sapiens, UniProt P20815); assay: CYP phenotyping, metabolic stability; type: in vitro ADME; conditions: CYP3A5 (10 pm/mL); for Mean Parent Remaining (%): 1 μM, after 60 minutes
Procedure: as §4, §5

[8] = system: UTSCC-14 xenograft tumours; assay: UTSCC-14 xenograft study in nu/nu mice; type: in vivo; conditions: 7, 20, 50 mg/kg i.p. daily for 29 days; tumours excised day 40; versus vehicle control
Procedure: The study compared the efficacy of Compound II with a vehicle control in UTSCC-14 xenograft tumours at three different dose levels.
Forty female nu/nu mice (7-9 wks old, weight 20-25 grams) were implanted sc with 2e6 UTSCC-14 cells and randomized 10 days later into […] (Table 1) with an approximate tumour volume of 100-150 mm-3. All groups were dosed daily ip for 29 days. On day 40 tumours were excised and weighed.
The UTSCC-14 cells used in the experiment were sourced from Professor Reidar Grénman's laboratory at the University of Turku, Department of Head and Neck Surgery, Turku University, Turku, Finland) and taken from a grade II primary tumour from the tongue of a head and neck cancer patient.
Compound II was dissolved/suspended in 100% cell culture grade DMSO at 40 mg/ml, before dilution with ddH20 immediately prior to dosing to make a stock 50% DMSO/Water solution. This stock solution was used to prepare all doses by dilution with 50% DMSO/Water to achieve the required concentration.
FIG. 2 compares the weight in grams of tumours excised on day 40 of the study. […] The study provides evidence that Compound II (and related compounds described here) are useful in the development of novel cancer therapies.

[9] = molecular target: CYP3A4 (Homo sapiens, UniProt P08684); assay: CYP phenotyping, metabolic stability; type: in vitro ADME; conditions: CYP3A4 (10 pm/mL); 1 μM; after 60 minutes
Procedure: (§6) Compounds V and II were exposed to a panel of six CYPs (see Table 5 below).
as §5

[10] = molecular target: CYP2C9 (Homo sapiens, UniProt P11712); assay: CYP phenotyping, metabolic stability; type: in vitro ADME; conditions: CYP2C9 (10 pm/mL); 1 μM; after 60 minutes
Procedure: as §6, §5

[11] = molecular target: CYP2C19 (Homo sapiens, UniProt P33261); assay: CYP phenotyping, metabolic stability; type: in vitro ADME; conditions: CYP2C19 (10 pm/mL); 1 μM; after 60 minutes
Procedure: as §6, §5

[12] = molecular target: CYP2D6 (Homo sapiens, UniProt P10635); assay: CYP phenotyping, metabolic stability; type: in vitro ADME; conditions: CYP2D6 (10 pm/mL); 1 μM; after 60 minutes
Procedure: as §6, §5

[13] = molecular target: FLT-1 (Homo sapiens, UniProt P17948); assay: Cerep kinase screen; type: biochemical; conditions: read-out: % Inhibition of Control
Procedure: (§7) Kinase screening was performed by Cerep Laboratories (Celle l′Evescault, France). Compounds were screened in duplicate at a single concentration (10 μM). The results, set forth in Table 4 below, are expressed as percent inhibition of control specific activity: {100−[(measured specific activity/control specific activity)×100]} obtained in the presence of Compound XI and Compound V. ATP concentrations correspond to the ATP Km value for each individual kinase (Cerep, private communication). In each experiment, a reference compound was tested concurrently with Compound XI and Compound V in order to assess the assay reliability. IC50 values for the reference compounds were within accepted limits (±0.5 log units) of the historic average.

[14] = molecular target: FGFR4 (Homo sapiens, UniProt P22455); assay: Cerep kinase screen; type: biochemical; conditions: read-out: % Inhibition of Control
Procedure: as §7

[15] = molecular target: Lyn (Homo sapiens, UniProt P07948); assay: Cerep kinase screen; type: biochemical; conditions: read-out: % Inhibition of Control
Procedure: as §7

[16] = molecular target: PDGFRβ (Homo sapiens, UniProt P09619); assay: Cerep kinase screen; type: biochemical; conditions: read-out: % Inhibition of Control
Procedure: as §7

[17] = molecular target: KDR (VEGFR2) (Homo sapiens, UniProt P35968); assay: Cerep kinase screen; type: biochemical; conditions: read-out: % Inhibition of Control
Procedure: as §7

[18] = molecular target: FGFR2 (Homo sapiens, UniProt P21802); assay: Cerep kinase screen; type: biochemical; conditions: read-out: % Inhibition of Control
Procedure: as §7

[19] = molecular target: FLT-3 (Homo sapiens, UniProt P36888); assay: Cerep kinase screen; type: biochemical; conditions: read-out: % Inhibition of Control
Procedure: as §7

[20] = molecular target: C-Met (HGFR) (Homo sapiens, UniProt P08581); assay: Cerep kinase screen; type: biochemical; conditions: read-out: % Inhibition of Control
Procedure: as §7

[21] = molecular target: CSK (Homo sapiens, UniProt P41240); assay: Cerep kinase screen; type: biochemical; conditions: read-out: % Inhibition of Control
Procedure: as §7

[22] = molecular target: Fyn (Homo sapiens, UniProt P06241); assay: Cerep kinase screen; type: biochemical; conditions: read-out: % Inhibition of Control
Procedure: as §7

[23] = 96 h, MTS, read-out: CHO/CYP1B1 IC50
[24] = text of b216, read-out: IC50, proliferation of CHO/CYP1B1 cells

Sequence of CYP3A5 (P20815 whole entry, species assumed): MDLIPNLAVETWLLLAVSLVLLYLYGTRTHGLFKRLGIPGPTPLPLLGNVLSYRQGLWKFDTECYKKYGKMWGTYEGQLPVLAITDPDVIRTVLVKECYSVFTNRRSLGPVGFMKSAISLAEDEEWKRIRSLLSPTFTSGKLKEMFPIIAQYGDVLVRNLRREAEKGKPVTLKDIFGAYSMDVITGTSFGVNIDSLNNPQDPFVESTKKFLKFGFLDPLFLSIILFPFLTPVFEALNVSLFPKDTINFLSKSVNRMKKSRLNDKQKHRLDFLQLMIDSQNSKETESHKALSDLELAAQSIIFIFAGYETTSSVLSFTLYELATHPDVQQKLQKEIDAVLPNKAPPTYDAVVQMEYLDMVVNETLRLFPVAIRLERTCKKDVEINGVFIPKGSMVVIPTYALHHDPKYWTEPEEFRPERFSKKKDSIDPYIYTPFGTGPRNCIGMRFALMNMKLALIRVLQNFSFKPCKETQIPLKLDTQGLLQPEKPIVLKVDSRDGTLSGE
Sequence of FLT-3 (P36888 27-993, species assumed): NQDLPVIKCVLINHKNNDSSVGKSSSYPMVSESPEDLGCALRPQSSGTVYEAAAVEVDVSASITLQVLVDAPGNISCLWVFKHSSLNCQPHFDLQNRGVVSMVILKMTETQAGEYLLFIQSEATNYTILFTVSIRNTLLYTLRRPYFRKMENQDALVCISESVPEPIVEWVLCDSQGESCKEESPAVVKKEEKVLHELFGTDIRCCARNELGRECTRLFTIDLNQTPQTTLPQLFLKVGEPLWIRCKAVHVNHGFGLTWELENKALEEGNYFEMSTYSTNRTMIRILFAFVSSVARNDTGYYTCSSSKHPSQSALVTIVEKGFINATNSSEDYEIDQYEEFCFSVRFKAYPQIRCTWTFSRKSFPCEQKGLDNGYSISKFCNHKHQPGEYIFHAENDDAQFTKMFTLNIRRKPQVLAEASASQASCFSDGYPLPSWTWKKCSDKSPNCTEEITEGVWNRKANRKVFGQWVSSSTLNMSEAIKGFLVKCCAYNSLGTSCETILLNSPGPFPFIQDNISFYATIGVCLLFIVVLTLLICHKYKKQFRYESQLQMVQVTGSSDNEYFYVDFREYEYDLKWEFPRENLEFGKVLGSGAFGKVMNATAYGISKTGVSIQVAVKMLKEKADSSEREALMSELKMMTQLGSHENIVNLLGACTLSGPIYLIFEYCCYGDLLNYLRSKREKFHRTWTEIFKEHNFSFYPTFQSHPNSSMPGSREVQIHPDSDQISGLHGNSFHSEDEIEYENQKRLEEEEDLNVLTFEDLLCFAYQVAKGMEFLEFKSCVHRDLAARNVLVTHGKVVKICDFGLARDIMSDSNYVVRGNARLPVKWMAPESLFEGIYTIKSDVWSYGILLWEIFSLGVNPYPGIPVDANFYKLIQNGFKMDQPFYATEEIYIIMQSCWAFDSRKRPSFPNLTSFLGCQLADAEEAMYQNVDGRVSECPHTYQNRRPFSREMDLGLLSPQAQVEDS
Sequence of FLT-1 (P17948 27-1338, species assumed): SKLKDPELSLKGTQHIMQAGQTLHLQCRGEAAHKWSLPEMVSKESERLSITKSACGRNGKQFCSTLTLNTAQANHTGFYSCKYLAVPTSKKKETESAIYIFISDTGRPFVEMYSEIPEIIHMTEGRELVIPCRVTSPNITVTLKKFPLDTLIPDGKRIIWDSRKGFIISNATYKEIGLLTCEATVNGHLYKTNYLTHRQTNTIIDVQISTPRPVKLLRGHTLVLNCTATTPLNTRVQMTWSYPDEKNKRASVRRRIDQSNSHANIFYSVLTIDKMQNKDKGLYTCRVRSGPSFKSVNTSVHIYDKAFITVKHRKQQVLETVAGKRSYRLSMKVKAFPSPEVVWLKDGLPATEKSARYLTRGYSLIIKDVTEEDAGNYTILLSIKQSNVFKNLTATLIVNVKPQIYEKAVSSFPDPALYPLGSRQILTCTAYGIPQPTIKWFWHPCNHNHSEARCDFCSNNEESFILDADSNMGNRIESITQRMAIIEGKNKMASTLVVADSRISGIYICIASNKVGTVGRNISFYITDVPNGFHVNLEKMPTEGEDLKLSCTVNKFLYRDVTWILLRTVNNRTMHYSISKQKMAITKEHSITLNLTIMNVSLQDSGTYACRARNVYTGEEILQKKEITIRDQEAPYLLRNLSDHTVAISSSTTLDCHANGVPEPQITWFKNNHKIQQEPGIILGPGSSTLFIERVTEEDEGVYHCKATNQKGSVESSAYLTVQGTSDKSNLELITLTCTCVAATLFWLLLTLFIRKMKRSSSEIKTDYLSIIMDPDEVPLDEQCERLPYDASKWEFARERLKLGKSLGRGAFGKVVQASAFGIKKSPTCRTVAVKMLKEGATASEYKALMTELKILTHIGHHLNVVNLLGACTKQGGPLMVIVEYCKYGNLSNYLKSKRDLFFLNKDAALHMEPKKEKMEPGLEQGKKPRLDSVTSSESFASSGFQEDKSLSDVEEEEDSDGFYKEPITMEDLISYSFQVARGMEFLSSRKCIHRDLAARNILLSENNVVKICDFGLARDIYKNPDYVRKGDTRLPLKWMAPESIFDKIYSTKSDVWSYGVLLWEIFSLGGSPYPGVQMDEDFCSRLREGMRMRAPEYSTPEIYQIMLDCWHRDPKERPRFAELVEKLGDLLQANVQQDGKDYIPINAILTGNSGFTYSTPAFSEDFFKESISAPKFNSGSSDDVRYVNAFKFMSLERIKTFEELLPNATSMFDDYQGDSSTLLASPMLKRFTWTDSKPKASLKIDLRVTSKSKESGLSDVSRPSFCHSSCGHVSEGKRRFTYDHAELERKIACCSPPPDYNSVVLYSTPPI
Sequence of FGFR2 (P21802 22-821, species assumed): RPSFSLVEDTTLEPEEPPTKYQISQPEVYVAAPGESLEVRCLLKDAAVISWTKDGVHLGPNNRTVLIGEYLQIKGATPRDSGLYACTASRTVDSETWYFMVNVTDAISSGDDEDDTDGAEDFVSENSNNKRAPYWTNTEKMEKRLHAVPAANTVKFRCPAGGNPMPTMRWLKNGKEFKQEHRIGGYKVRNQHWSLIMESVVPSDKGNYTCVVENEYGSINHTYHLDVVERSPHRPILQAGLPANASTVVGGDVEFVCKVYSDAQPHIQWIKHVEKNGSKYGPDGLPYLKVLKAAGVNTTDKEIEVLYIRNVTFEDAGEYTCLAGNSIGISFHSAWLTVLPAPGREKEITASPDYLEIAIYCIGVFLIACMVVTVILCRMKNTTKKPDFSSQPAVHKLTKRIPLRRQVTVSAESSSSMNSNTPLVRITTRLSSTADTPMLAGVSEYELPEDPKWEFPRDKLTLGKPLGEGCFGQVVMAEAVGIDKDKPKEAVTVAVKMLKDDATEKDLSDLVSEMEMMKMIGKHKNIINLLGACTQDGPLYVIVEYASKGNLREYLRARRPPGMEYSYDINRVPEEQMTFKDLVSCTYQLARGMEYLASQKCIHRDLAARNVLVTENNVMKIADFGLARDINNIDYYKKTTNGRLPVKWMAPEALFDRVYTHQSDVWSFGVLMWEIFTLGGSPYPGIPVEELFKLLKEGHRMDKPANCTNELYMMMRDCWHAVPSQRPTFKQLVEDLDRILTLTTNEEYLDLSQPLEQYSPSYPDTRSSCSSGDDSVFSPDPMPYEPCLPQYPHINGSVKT
Sequence of KDR (VEGFR2) (P35968 20-1356, species assumed): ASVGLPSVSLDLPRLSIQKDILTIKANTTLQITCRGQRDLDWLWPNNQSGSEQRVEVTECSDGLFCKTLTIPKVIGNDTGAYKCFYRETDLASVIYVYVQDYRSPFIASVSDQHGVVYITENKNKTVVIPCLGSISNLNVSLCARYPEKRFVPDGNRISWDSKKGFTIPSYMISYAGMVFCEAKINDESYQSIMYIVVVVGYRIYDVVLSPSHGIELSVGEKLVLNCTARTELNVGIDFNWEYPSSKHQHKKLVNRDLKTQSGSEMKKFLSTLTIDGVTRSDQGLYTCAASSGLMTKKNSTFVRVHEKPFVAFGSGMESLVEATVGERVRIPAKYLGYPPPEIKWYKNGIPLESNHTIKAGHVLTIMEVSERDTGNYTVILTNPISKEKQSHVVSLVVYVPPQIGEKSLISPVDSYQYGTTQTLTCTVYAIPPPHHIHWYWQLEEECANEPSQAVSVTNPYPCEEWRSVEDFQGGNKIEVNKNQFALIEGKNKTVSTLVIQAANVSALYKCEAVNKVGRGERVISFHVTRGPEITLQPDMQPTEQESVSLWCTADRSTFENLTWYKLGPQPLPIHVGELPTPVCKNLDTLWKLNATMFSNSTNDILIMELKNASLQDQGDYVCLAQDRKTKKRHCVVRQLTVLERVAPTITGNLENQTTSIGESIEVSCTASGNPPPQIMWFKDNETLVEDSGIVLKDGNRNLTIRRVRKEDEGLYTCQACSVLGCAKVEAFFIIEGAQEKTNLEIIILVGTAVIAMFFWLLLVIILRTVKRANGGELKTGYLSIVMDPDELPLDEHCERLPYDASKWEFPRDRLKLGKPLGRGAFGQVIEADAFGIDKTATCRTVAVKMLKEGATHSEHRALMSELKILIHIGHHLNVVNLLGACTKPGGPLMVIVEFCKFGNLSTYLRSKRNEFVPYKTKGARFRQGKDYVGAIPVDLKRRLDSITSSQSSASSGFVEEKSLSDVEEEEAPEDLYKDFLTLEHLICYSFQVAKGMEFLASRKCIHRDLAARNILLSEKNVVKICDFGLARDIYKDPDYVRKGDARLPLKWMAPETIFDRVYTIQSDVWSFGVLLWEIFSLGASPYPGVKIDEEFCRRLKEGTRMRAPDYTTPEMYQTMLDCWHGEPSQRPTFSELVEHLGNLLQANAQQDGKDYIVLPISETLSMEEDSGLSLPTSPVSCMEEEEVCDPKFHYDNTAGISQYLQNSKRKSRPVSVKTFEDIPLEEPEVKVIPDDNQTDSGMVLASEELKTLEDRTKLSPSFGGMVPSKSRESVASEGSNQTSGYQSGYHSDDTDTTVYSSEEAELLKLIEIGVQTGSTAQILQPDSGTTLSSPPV

COc1ccc(-c2cc(-c3ccc4c(c3)OCO4)cc(=O)[nH]2)c(OC)c1 [Compound III]
IC50 at 96 h [1, 23]: 40 ± 30 nM
activity against CHO/CYP1B1 cells (in words) [2]: active
toxicity / activity in CYP1A1 expressing CHO cells (in words) [3]: active
IC50 at 96 h [4]: 950 ± 350 nM
IC50 [5]: 6110 ± 340 nM

CCCOc1ccc(-c2cc(-c3ccc(OC)c(OC)c3)[nH]c(=O)c2)cc1 [Compound II]
Mean Parent Remaining (%) [6]: 69%
Mean Parent Remaining (%) [7]: 126%
wet tumour weight at the end of the study (FIG. 2) [8]: dose dependent reduction in wet tumour weight
Mean Parent Remaining (%) [9]: 122%
Mean Parent Remaining (%) [10]: 130%
Mean Parent Remaining (%) [11]: 127%
Mean Parent Remaining (%) [12]: 127%
IC50 at 96 h [1, 23]: 90 ± 50 nM
activity against CHO/CYP1B1 cells (in words) [2]: strongly inhibit proliferation
toxicity / activity in CYP1A1 expressing CHO cells (in words) [3]: non toxic
IC50 at 96 h [4]: > 50000 nM
toxicity to wild-type CHO cells (in words) [5]: non toxic
IC50 [5]: > 50000 nM

COc1ccc(-c2cc(-c3ccc4c(c3)OCO4)cc(=O)[nH]2)cc1 [Compound VI]
IC50 at 96 h [1, 24]: 500 nM
activity against CHO/CYP1B1 cells (in words) [2]: strongly inhibit proliferation
toxicity / activity in CYP1A1 expressing CHO cells (in words) [3]: non toxic
IC50 at 96 h [4]: > 100000 nM
toxicity to wild-type CHO cells (in words) [5]: non toxic
IC50 [5]: > 100000 nM

COc1ccc(-c2cc(-c3ccc4c(c3)OCO4)cc(=O)[nH]2)cc1OC [Compound V]
inhibition at 10 µM [13]: 11%
inhibition at 10 µM [14]: -3%
inhibition at 10 µM [15]: -1%
inhibition at 10 µM [16]: 7%
inhibition at 10 µM [17]: 19%
inhibition at 10 µM [18]: 13%
inhibition at 10 µM [19]: 21%
inhibition at 10 µM [20]: -5%
inhibition at 10 µM [21]: 4%
inhibition at 10 µM [22]: 25%
Mean Parent Remaining (%) [6]: 71%
Mean Parent Remaining (%) [7]: 87%
Mean Parent Remaining (%) [9]: 93%
Mean Parent Remaining (%) [10]: 109%
Mean Parent Remaining (%) [11]: 111%
Mean Parent Remaining (%) [12]: 100%
IC50 at 96 h [1, 24]: 80 nM
activity against CHO/CYP1B1 cells (in words) [2]: strongly inhibit proliferation
toxicity / activity in CYP1A1 expressing CHO cells (in words) [3]: non toxic
IC50 at 96 h [4]: > 100000 nM
toxicity to wild-type CHO cells (in words) [5]: non toxic
IC50 [5]: > 100000 nM

COc1ccc(-c2cc(-c3ccc(O)c(O)c3)cc(=O)[nH]2)cc1OC [Compound XI]
inhibition at 10 µM [13]: 98%
inhibition at 10 µM [14]: 85%
inhibition at 10 µM [15]: 99%
inhibition at 10 µM [16]: 91%
inhibition at 10 µM [17]: 96%
inhibition at 10 µM [18]: 98%
inhibition at 10 µM [19]: 93%
inhibition at 10 µM [20]: 58%
inhibition at 10 µM [21]: 98%
inhibition at 10 µM [22]: 100%

CCOc1ccc2nc3ccc(=O)cc-3oc2c1 [Ethoxy-resorufin, 7-ethoxyresorufin, reference compound]
% Reference Compound Remaining ([6]; reference compound): 0%

Cc1ncc2n1-c1ccc(Cl)cc1C(c1ccccc1F)=NC2 [Midazolam, reference compound]
% Reference Compound Remaining ([7]; reference compound): 1%
